Laboratory results as given in PubChem BioAssay (NCI).
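All cell lines were grown in 96-well plates and treated with compound for 48 hours. Here, GI50 denotes the concentration required for 50% inhibition of growth. TGI denotes the concentration required for complete inhibition of growth.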

Experiments:
Experiment in all cases: NCI tumour cell line growth inhibition, 48 h; in the data active = GI50 below about 0.43 µM; inactive = the rest
OVCAR-8 ovarian = tested on: OVCAR-8 ovarian
A498 renal = tested on: A498 renal
CCRF-CEM leukemia = tested on: CCRF-CEM leukemia
NCI-H460 lung = tested on: NCI-H460 lung
OVCAR-5 ovarian = tested on: OVCAR-5 ovarian
NCI/ADR-RES ovarian = tested on: NCI/ADR-RES ovarian
NCI-H226 lung = tested on: NCI-H226 lung
CAKI-1 renal = tested on: CAKI-1 renal
HCC-2998 colon = tested on: HCC-2998 colon
PC-3 prostate = tested on: PC-3 prostate
SK-MEL-28 melanoma = tested on: SK-MEL-28 melanoma
SF-268 CNS = tested on: SF-268 CNS
TK-10 renal = tested on: TK-10 renal
UO-31 renal = tested on: UO-31 renal
RXF 393 renal = tested on: RXF 393 renal
LOX IMVI melanoma = tested on: LOX IMVI melanoma
OVCAR-3 ovarian = tested on: OVCAR-3 ovarian
MDA-MB-231 breast = tested on: MDA-MB-231 breast
HL-60(TB) leukemia = tested on: HL-60(TB) leukemia
HOP-62 NSCLC = tested on: HOP-62 NSCLC
BT-549 breast = tested on: BT-549 breast
M14 melanoma = tested on: M14 melanoma
NCI-H522 lung = tested on: NCI-H522 lung
ACHN renal = tested on: ACHN renal
SK-OV-3 ovarian = tested on: SK-OV-3 ovarian
RPMI-8226 leukemia = tested on: RPMI-8226 leukemia
EKVX NSCLC = tested on: EKVX NSCLC
MDA-MB-435 = tested on: MDA-MB-435

CN(C)c1nc(NCCNS(=O)(=O)c2ccc(C3=Nc4c(N)nc(N)nc4NC(c4ccc(Cl)cc4)C3)cc2)nc(Nc2ccc(F)cc2)n1 (stereo unspecified)
11.5 µM: TGI (M14 melanoma)
8.75 µM: TGI (RXF 393 renal)
65.7 µM: TGI (MDA-MB-231 breast)
inactive: GI50 (OVCAR-8 ovarian) > 100 µM | GI50 (A498 renal) 58.4 µM | GI50 (CCRF-CEM leukemia) 2.92 µM | GI50 (NCI-H460 lung) 4.49 µM | GI50 (OVCAR-5 ovarian) > 100 µM | GI50 (NCI/ADR-RES ovarian) > 100 µM | GI50 (NCI-H226 lung) > 100 µM | GI50 (CAKI-1 renal) 8.07 µM | GI50 (HCC-2998 colon) 3.14 µM | GI50 (PC-3 prostate) 3.44 µM | GI50 (SK-MEL-28 melanoma) 8.22 µM | GI50 (SF-268 CNS) 5.74 µM | GI50 (TK-10 renal) > 100 µM | GI50 (UO-31 renal) > 100 µM | GI50 (RXF 393 renal) 2.27 µM | GI50 (LOX IMVI melanoma) 1.77 µM | GI50 (OVCAR-3 ovarian) 7.45 µM | GI50 (MDA-MB-231 breast) 3.73 µM | GI50 (HL-60(TB) leukemia) 2.72 µM | GI50 (HOP-62 NSCLC) > 100 µM | GI50 (BT-549 breast) 3.96 µM | GI50 (M14 melanoma) 3.15 µM | GI50 (NCI-H522 lung) 16 µM | GI50 (ACHN renal) > 100 µM | GI50 (SK-OV-3 ovarian) > 100 µM | GI50 (RPMI-8226 leukemia) 3.19 µM | GI50 (EKVX NSCLC) 5.05 µM | GI50 (MDA-MB-435) 5.17 µM
13.3 µM: TGI (HL-60(TB) leukemia)
> 100 µM: TGI (OVCAR-8 ovarian) | TGI (A498 renal) | TGI (CCRF-CEM leukemia) | TGI (NCI-H460 lung) | TGI (OVCAR-5 ovarian) | TGI (NCI/ADR-RES ovarian) | TGI (NCI-H226 lung) | TGI (CAKI-1 renal) | TGI (PC-3 prostate) | TGI (SK-MEL-28 melanoma) | TGI (SF-268 CNS) | TGI (TK-10 renal) | TGI (UO-31 renal) | TGI (OVCAR-3 ovarian) | TGI (HOP-62 NSCLC) | TGI (NCI-H522 lung) | TGI (ACHN renal) | TGI (SK-OV-3 ovarian) | TGI (RPMI-8226 leukemia) | TGI (EKVX NSCLC) | TGI (MDA-MB-435)
28.7 µM: TGI (BT-549 breast)
18.4 µM: TGI (HCC-2998 colon)
3.55 µM: TGI (LOX IMVI melanoma)
